Reference: patent US4877727A, “Substrate for determining leucine aminopeptidase or gamma-glutamyltranspeptase activity” (Kyowa Medex Co., Ltd., priority 1984, dated 1989)
In brackets after ≈: the same amount, converted by molar mass.

How the values were obtained:
Solubility of substrate = format: physicochemical; conditions: read-out: S: Solubility
[1] = Maximum wavelength of formed pigment; format: physicochemical
Method: 50 μl of 1 mM each free compound was added to 3 ml of 0.1M phosphate buffer containing 0.5 mg/ml EMSE and 1 U/ml laccase and the mixture was incubated at 37° C. for 5 minutes. The absorption of the reaction solution at λmax was measured. As a control, 5-aminosalicylic acid was used and the reaction of the compound with 2,6-xylenol was carried out in the presence of metaperiodate under strong alkaline conditions.

Stability of pigment = format: physicochemical
[2] = molecular target: T1, γ-glutamyltranspeptidase (γ-GTP) (Homo sapiens, UniProt P19440); test: γ-GTP determination in serum (Example 3); format: biochemical; conditions: found with the compound as substrate; standard serum 235 mU/ml; 37° C., 5 minutes; wavelength of Table 2
T1 construct: from tissue; host or cells: serum
Method: In this example, 500 mg of compound Nos. 1, 3, 5, 7 and 9 each and 500 mg of glycylglycine were dissolved in 100 ml (pH=7.7) and 0.1M phosphate buffer. The resultant solutions were designated A-1, A-3, A-5, A-7 and A-9, respectively. 50 mg of 3-{N-(m-tolyl)-N-ethyl}amino-2-hydroxypropane sulfonic acid was dissolved in 100 ml of phosphate buffer solution to obtain solution B. 50 mg/ml sodium meta-periodate containing 1N-HCl solution was prepared as solution C.
6 ml of solution A-1, A-3, A-5, A-7 or A-9 was equally poured to 3 test tubes. The samples were incubated at 37° C. and to the solution was added […] of (a) serum sample (b) standard serum or (c) water. The mixtures were stirred and heated for 5 minutes. After 5 minutes had passed, 1 ml of solution B and 1 ml of solution C were added to each of the mixtures and the mixtures were incubated for 10 minutes after stirring. As the standard serum, a serum having 235 mU/ml of γ-GTP was used.
The γ-GTP activity of the serum sample can be calculated by the following equation. [formula]

[3] = tested on: leucine aminopeptidase (LAP); test: LAP determination in serum, absorption change per minute (Example 1); format: biochemical
Method: 3 ml of the reagent solution was incubated at 37° C. for ten minutes. To the solution was added 0.05 ml of a serum sample and the mixture was immediately stirred and the change in absorption of the solution at 745 nm was measured for one minute.
LAP activity in the sample can be calculated using the following equation: [formula] ΔE means the amount of absorption change per minute.
The same procedures as described above were repeated except that the following materials were used. […]

T1 sequence (P19440 1-380 limits assumed): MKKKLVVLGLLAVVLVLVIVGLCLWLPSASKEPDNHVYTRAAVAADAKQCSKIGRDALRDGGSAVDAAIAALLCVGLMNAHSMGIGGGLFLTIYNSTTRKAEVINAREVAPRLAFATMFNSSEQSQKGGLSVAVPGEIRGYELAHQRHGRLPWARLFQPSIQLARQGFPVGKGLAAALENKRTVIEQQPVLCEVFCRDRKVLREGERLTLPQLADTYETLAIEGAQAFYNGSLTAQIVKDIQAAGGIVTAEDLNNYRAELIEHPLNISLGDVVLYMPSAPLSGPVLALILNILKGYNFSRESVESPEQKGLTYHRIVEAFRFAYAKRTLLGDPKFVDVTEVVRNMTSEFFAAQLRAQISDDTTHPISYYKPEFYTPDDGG
T1 sequence (P19440 381-569 limits assumed): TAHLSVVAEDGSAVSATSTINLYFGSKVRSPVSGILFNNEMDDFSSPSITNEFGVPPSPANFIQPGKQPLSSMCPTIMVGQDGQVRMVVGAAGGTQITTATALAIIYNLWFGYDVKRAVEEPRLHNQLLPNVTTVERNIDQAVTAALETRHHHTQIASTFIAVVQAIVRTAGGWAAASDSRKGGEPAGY

SMILES | solubility (Solubility of substrate) | λmax: Maximum wavelength [1] | ST: Stability of pigment (Stability of pigment) | further results
Cc1cc(NC(=O)[C@@H](N)CC(C)C)ccc1N(CCS(=O)(=O)O)CCS(=O)(=O)O [compound 12] | > 200 mg/mL | 715 nm | > 98% | 
CC(C)C[C@H](N)C(=O)Nc1ccc(N(C)CCCS(=O)(=O)O)cc1 [compound 4] | 65 mg/mL (≈ 182 mM) | 750 nm | > 96% | 
CC(C)C[C@H](N)C(=O)Nc1ccc(N(CCS(=O)(=O)O)CCS(=O)(=O)O)c(C#N)c1 [compound 11] | > 200 mg/mL | 640 nm | 95% | 
N[C@@H](CCC(=O)Nc1ccc(N(CCCS(=O)(=O)O)CCCS(=O)(=O)O)c(Cl)c1)C(=O)O [compound 9] | > 200 mg/mL | 685 nm | > 98% | γ-GTP activity of the serum sample [2]: 242 mU/ml
N[C@@H](CCC(=O)Nc1ccc(N(CCCS(=O)(=O)O)CCCS(=O)(=O)O)c(S(=O)(=O)O)c1)C(=O)O [compound 7] | > 20 mg/mL | 680 nm | 93% | γ-GTP activity of the serum sample [2]: 240 mU/ml
CC(C)C[C@H](N)C(=O)Nc1ccc(N(CCCS(=O)(=O)O)CCCS(=O)(=O)O)c(Cl)c1 [compound 10] | 125 mg/mL (≈ 250 mM) | 685 nm | > 98% | 
CC(C)C[C@H](N)C(=O)Nc1ccc(O)c(C(=O)O)c1 [(a), L-leucil-3-carboxy-4-hydroxyanilide] |  |  |  | amount of absorption change per minute ([3]; Serum (2), same wavelengths): 0.0127; amount of absorption change per minute ([3]; Serum (3), same wavelengths): 0.0198; amount of absorption change per minute ([3]; Serum (4), same wavelengths): 0.0203; amount of absorption change per minute ([3]; Serum (5), same wavelengths): 0.0148; amount of absorption change per minute ([3]; Serum (6), same wavelengths): 0.0158; amount of absorption change per minute ([3]; Serum (7), same wavelengths): 0.0153; amount of absorption change per minute ([3]; Serum (8), same wavelengths): 0.0191; amount of absorption change per minute ([3]; Serum (9), same wavelengths): 0.0190; amount of absorption change per minute ([3]; Serum (10), same wavelengths): 0.0184; amount of absorption change per minute ([3]; Serum(1), 37° C., 745 nm Compound No. 2, 635 nm (a), 565 nm (b), 675 nm (c)): 0.0188
CC(C)C[C@H](N)C(=O)Nc1ccc(N(CCCS(=O)(=O)O)CCCS(=O)(=O)O)c(S(=O)(=O)O)c1 [compound 8] | > 200 mg/mL | 680 nm | 93% | 
